Measured values reported in PMC12396409, “Screening and hit evaluation of a microbial metabolite library against the pathogenic Plasmodium falciparum and Toxoplasma gondii parasites” (International Journal for Parasitology: Drugs and Drug …, 2025).
Like-named read-outs stand apart in the source and are kept apart here.

Experiments:
[1] = test system: P. falciparum 3D7 parasites; test: P. falciparum growth inhibition assay, 2-cycle (120 h treatment), delayed-death screen and dose-response; type: cell-based, Plasmodium falciparum
[2] = test system: T. gondii RH strain (RH-Tub-eYFP) tachyzoites; test: microbe, parasite or virus in culture; type: cell-based, Toxoplasma gondii; details: 72 h; for percent parasite growth at 2 µg/mL: Toxoplasma gondii
[3] = test system: P. falciparum 3D7 parasites; test: P. falciparum growth inhibition assay, 1-cycle (72 h treatment), SYBR DNA staining (library screen at 2 μg/mL and dose-response); type: cell-based, Plasmodium falciparum
[4] = T. gondii, 2 μg/mL, values are growth (% of control)
[5] = library screen at 2 μg/mL, 120 h, % growth, replicate 1
[6] = library screen at 2 μg/mL, 120 h, % growth, replicate 2
[7] = library screen at 2 μg/mL, % growth, replicate 1
[8] = library screen at 2 μg/mL, % growth, replicate 2
[9] = library screen at 2 μg/mL, 72 h, % growth, replicate 1
[10] = library screen at 2 μg/mL, 72 h, % growth, replicate 2

Which results are given for `C/C=C/C[C@@H](C)[C@@H](O)[C@H]1C(=O)N[C@@H](C(C)C)C(=O)N(C)CC(=O)N(C)[C@@H](CC(C)C)C(=O)N[C@@H](C(C)C)C(=O)N(C)[C@@H](CC(C)C)C(=O)N[C@@H](C)C(=O)N[C@H](C)C(=O)N(C)[C@@H](CC(C)C)C(=O)N(C)[C@@H](CC(C)C)C(=O)N(C)[C@@H](C(C)C)C(=O)N1C` [Cyclosporin D]?
Pf_120h_%Growth_Rep1 ([1]; P. falciparum, 120 h, screen at 2 μg/mL, replicate 1): -2.52%; Pf_120h_%Growth_Rep2 ([1]; P. falciparum, 120 h, screen at 2 μg/mL, replicate 2): -5.39%; Tg_72h_%Growth_Rep1 ([2]; T. gondii, screen at 2 μg/mL, replicate 1): 61.91%; Tg_72h_%Growth_Rep2 ([2]; T. gondii, screen at 2 μg/mL, replicate 2): 54.60%; Pf_72h_%Growth_Rep1 ([3]; P. falciparum, 72 h, screen at 2 μg/mL, replicate 1): 1.31%; Pf_72h_%Growth_Rep2 ([3]; P. falciparum, 72 h, screen at 2 μg/mL, replicate 2): 3.21%

What does the source list for `CO[C@H]1[C@@H](OC)C[C@H](C)[C@@H](OC)c2cc(O)cc(c2O)NC(=O)/C(C)=C/C=C\[C@H](OC)[C@@H](OC(N)=O)/C(C)=C/[C@@H]1C` [TAN 420E]?
Pf_120h_%Growth_Rep1 ([1]; P. falciparum, 120 h, parasite screen 2 μg/mL, % growth, replicate 1): 36.47%; Pf_120h_%Growth_Rep2 ([1]; P. falciparum, 120 h, parasite screen 2 μg/mL, % growth, replicate 2): 7.03%; Tg_72h_%Growth_Rep1 ([2]; T. gondii, parasite screen 2 μg/mL, % growth, replicate 1): 60.21%; Tg_72h_%Growth_Rep2 ([2]; T. gondii, parasite screen 2 μg/mL, % growth, replicate 2): 64.79%; Pf_72h_%Growth_Rep1 ([3]; P. falciparum, 72 h, parasite screen 2 μg/mL, % growth, replicate 1): 3.51%; Pf_72h_%Growth_Rep2 ([3]; P. falciparum, 72 h, parasite screen 2 μg/mL, % growth, replicate 2): -0.34%

Which Pf_120h_%Growth_Rep1 ([1]; P. falciparum 3D7, 120 h, parasite screen at 2 μg/mL, % growth, replicate 1) does the source give for `CC(=O)c1c(O)cc(O)cc1O` [BIA-M1378] here?
The Pf_120h_%Growth_Rep1 was 82.35%.

And the Pf_120h_%Growth_Rep2 ([1]; P. falciparum 3D7, 120 h, parasite screen at 2 μg/mL, % growth, replicate 2)?
Its Pf_120h_%Growth_Rep2 is 134.53%.

What about the Tg_72h_%Growth_Rep1 ([2]; T. gondii, parasite screen at 2 μg/mL, % growth, replicate 1) of the same compound?
Its Tg_72h_%Growth_Rep1 is 125.07%.

And the Tg_72h_%Growth_Rep2 ([2]; T. gondii, parasite screen at 2 μg/mL, % growth, replicate 2)?
Its Tg_72h_%Growth_Rep2 is 89.41%.

And the Pf_72h_%Growth_Rep1 ([3]; P. falciparum 3D7, 72 h, parasite screen at 2 μg/mL, % growth, replicate 1)?
The Pf_72h_%Growth_Rep1 was 82.52%.

What about the Pf_72h_%Growth_Rep2 ([3]; P. falciparum 3D7, 72 h, parasite screen at 2 μg/mL, % growth, replicate 2) of the same compound?
The Pf_72h_%Growth_Rep2 was 84.34%.

What does the source list for `CO[C@@H]1[C@@H](O[C@@H]2O[C@H](C)[C@@H](O[C@H]3C[C@@](C)(O)[C@@H](OC(=O)CC(C)C)[C@H](C)O3)[C@H](N(C)C)[C@H]2O)[C@@H](CC=O)C[C@@H](C)[C@@H](O)/C=C/C=C/C[C@@H](C)OC(=O)C[C@H]1OC(C)=O` [Josamycin (Leucomycin A3), reference compound]?
3) Fold change (72 h/120 h) [1]: 5.3; activity at 2 µg/mL ([1]; Plasmodium falciparum, 3D7, 120 h, P. falciparum, 2 μg/mL, 120 h; read-out: 2) Growth (%) at 120 h): 10.1%; Mean ([2]; T. gondii, 2 μg/mL, mean of both replicates, growth (% of control)): 20.93; Replicate 1 [2, 4]: 18.33; Replicate 2 [2, 4]: 23.52; activity at 2 µg/mL ([3]; Plasmodium falciparum, 3D7, 72 h, P. falciparum, 2 μg/mL, 72 h; read-out: 1) Growth (%) at 72 h): 53.5%

Which results are given for `COc1cc(C)c2c(c1)O[C@]1(C)Cc3cc4c(c(O)c3[C@H]2O1)C(=O)c1c(O)c(Cl)c(O)c(Cl)c1C4(C)C` [Bischloroanthrabenzoxocinone]?
Pf_120h_%Growth_Rep1 [1, 5]: 23.08%; Pf_120h_%Growth_Rep2 [1, 6]: 23.09%; Tg_72h_%Growth_Rep1 [2, 7]: 50.70%; Tg_72h_%Growth_Rep2 [2, 8]: 75.56%; Pf_72h_%Growth_Rep1 [3, 9]: 16.72%; Pf_72h_%Growth_Rep2 [3, 10]: 45.58%

For `CC[C@]1(C)C[C@@H](OC(=O)CO)C2(C)[C@H](C)CCC3(CCC(=O)[C@H]32)[C@@H](C)[C@@H]1O` (some centres unmarked) [Dihydropleuromutilin], which Pf_120h_%Growth_Rep1 [1, 5] is on record?
The Pf_120h_%Growth_Rep1 was 42.82%.

And the Pf_120h_%Growth_Rep2 [1, 6]?
The Pf_120h_%Growth_Rep2 was 51.71%.

And the Tg_72h_%Growth_Rep1 [2, 7]?
Its Tg_72h_%Growth_Rep1 is 80.68%.

What about the Tg_72h_%Growth_Rep2 [2, 8] of the same compound?
Its Tg_72h_%Growth_Rep2 is 63.68%.

What about the “Screen (T. gondii)” value ([2]; library screen at 2 μg/mL, RH strain) of the same compound?
The value was “I, I”.

And the “Screen (P. falciparum)” value ([3]; library screen at 2 μg/mL, 3D7, 72 h, DD from the 120 h timepoint)?
The value was “I, I”.

What about the Pf_72h_%Growth_Rep1 [3, 9] of the same compound?
The Pf_72h_%Growth_Rep1 was 84.27%.

And the Pf_72h_%Growth_Rep2 [3, 10]?
Its Pf_72h_%Growth_Rep2 is 76.59%.

Which activity at 2 µg/mL ([1]; Plasmodium falciparum, 3D7, library screen at 2 μg/mL, 120 h, % growth, replicate 1, read-out: Pf_120h_%Growth_Rep1) does the source give for `C=C1CC[C@H]2C(C)(C)CCC[C@]2(C)[C@H]1C[C@@]12C[C@H]3C(=O)N4CCC[C@H]4C(=O)N3[C@@H]1Nc1ccccc12` [Drimentine C] here?
The activity at 2 µg/mL was 78.4%.

And the activity at 2 µg/mL ([1]; Plasmodium falciparum, 3D7, library screen at 2 μg/mL, 120 h, % growth, replicate 2, read-out: Pf_120h_%Growth_Rep2)?
Its activity at 2 µg/mL is 103%.

What about the percent parasite growth at 2 µg/mL ([2]; library screen at 2 μg/mL, % growth, replicate 1, read-out: Tg_72h_%Growth_Rep1) of the same compound?
The percent parasite growth at 2 µg/mL was 91.6%.

What about the percent parasite growth at 2 µg/mL ([2]; library screen at 2 μg/mL, % growth, replicate 2, read-out: Tg_72h_%Growth_Rep2) of the same compound?
The percent parasite growth at 2 µg/mL was 73.3%.

What about the activity at 2 µg/mL ([3]; Plasmodium falciparum, 3D7, library screen at 2 μg/mL, 72 h, % growth, replicate 1, read-out: Pf_72h_%Growth_Rep1) of the same compound?
Its activity at 2 µg/mL is 85.2%.

And the activity at 2 µg/mL ([3]; Plasmodium falciparum, 3D7, library screen at 2 μg/mL, 72 h, % growth, replicate 2, read-out: Pf_72h_%Growth_Rep2)?
Its activity at 2 µg/mL is 87.9%.

Which results are given for `CO[C@H]1C[C@@H]2CC[C@@H](C)[C@@](O)(O2)C(=O)C(=O)N2CCCC[C@H]2C(=O)O[C@H]([C@H](C)C[C@@H]2CC[C@@H](OC(=O)C(C)(CO)CO)[C@H](OC)C2)CC(=O)[C@H](C)/C=C(\C)[C@@H](O)[C@@H](OC)C(=O)[C@H](C)C[C@H](C)/C=C/C=C/C=C/1C` [Temsirolimus]?
activity at 2 µg/mL ([1]; Plasmodium falciparum, 3D7, P. falciparum, 120 h, screen at 2 μg/mL, replicate 1, read-out: Pf_120h_%Growth_Rep1): 61.2%; activity at 2 µg/mL ([1]; Plasmodium falciparum, 3D7, P. falciparum, 120 h, screen at 2 μg/mL, replicate 2, read-out: Pf_120h_%Growth_Rep2): 46.5%; percent parasite growth at 2 µg/mL ([2]; T. gondii, screen at 2 μg/mL, replicate 1, read-out: Tg_72h_%Growth_Rep1): 97%; percent parasite growth at 2 µg/mL ([2]; T. gondii, screen at 2 μg/mL, replicate 2, read-out: Tg_72h_%Growth_Rep2): 76.6%; activity at 2 µg/mL ([3]; Plasmodium falciparum, 3D7, P. falciparum, 72 h, screen at 2 μg/mL, replicate 1, read-out: Pf_72h_%Growth_Rep1): 59.1%; activity at 2 µg/mL ([3]; Plasmodium falciparum, 3D7, P. falciparum, 72 h, screen at 2 μg/mL, replicate 2, read-out: Pf_72h_%Growth_Rep2): 47.4%
